# Source: patent US6858591B2, “Antibiotic AA 896 analogs” (Wyeth Holdings Corporation, priority 2001, dated 2005)
# Like-named read-outs stand apart in the source and are kept apart here.
# What was measured:
# Assay in all cases: In vitro MIC, broth dilution
# Format in all cases: cell-based
# E. coli GC 4559 = settings: Escherichia coli, GC4559
# E. coli GC 4560 = settings: Escherichia coli, GC4560
# E. coli GC 3226 = settings: Escherichia coli, GC3226
# S. marcescens GC 4077 = settings: Serratia marcescens, GC4077
# C. albicans GC 3066 = settings: Candida albicans, GC3066
# M. morganii GC 4531 = settings: Morganella morganii, GC4531
# K. pneumoniae GC 4534 = settings: Klebsiella pneumoniae, GC4534
# E. cloacae GC 3783 = settings: Enterobacter cloacae, GC3783
# P. aeruginosa GC 4532 = settings: Pseudomonas aeruginosa, GC4532
# CNS GC 4537 = system: CNS GC 4537
# In short: (§1)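 Broth microdilution per NCCLS in Mueller-Hinton II, inoculum 5×10^5 CFU/ml, antibiotic range 64-0.06 μg/ml. Plates incubated 18 hours at 35° C. in ambient air; MIC taken as lowest concentration inhibiting visible growth.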
# CNS GC 4538 = system: CNS GC 4538
# In short: as §1
# CNS GC 4547 = system: CNS GC 4547
# In short: as §1
# E. faecalis GC 2242 = settings: Enterococcus faecalis, GC2242
# In short: as §1
# E. faecalis GC 4555 = settings: Enterococcus faecalis, GC4555
# In short: as §1
# E. faecalis GC 842 = settings: Enterococcus faecalis, GC842
# In short: as §1
# S. aureus GC 1131 = settings: Staphylococcus aureus, GC1131
# In short: as §1
# S. aureus GC 2216 = settings: Staphylococcus aureus, GC2216
# In short: as §1
# S. aureus GC 4536 = settings: Staphylococcus aureus, GC4536
# In short: as §1
# E. coli GC 2203 = settings: Escherichia coli, GC2203
# P. aeruginosa GC 2214 = settings: Pseudomonas aeruginosa, GC2214
Compound,MIC (E. coli GC 4559) [µg/mL],MIC (E. coli GC 4560) [µg/mL],MIC (E. coli GC 3226) [µg/mL],MIC (S. marcescens GC 4077) [µg/mL],MIC (C. albicans GC 3066) [µg/mL],MIC (M. morganii GC 4531) [µg/mL],MIC (K. pneumoniae GC 4534) [µg/mL],MIC (E. cloacae GC 3783) [µg/mL],MIC (P. aeruginosa GC 4532) [µg/mL],MIC (CNS GC 4537) [µg/mL],MIC (CNS GC 4538) [µg/mL],MIC (CNS GC 4547) [µg/mL],MIC (E. faecalis GC 2242) [µg/mL],MIC (E. faecalis GC 4555) [µg/mL],MIC (E. faecalis GC 842) [µg/mL],MIC (S. aureus GC 1131) [µg/mL],MIC (S. aureus GC 2216) [µg/mL],MIC (S. aureus GC 4536) [µg/mL],MIC (E. coli GC 2203) [µg/mL],MIC (P. aeruginosa GC 2214) [µg/mL],further results
"COc1ccc(Cn2c(=O)ccn([C@@H]3OC([C@H](O)[C@H](NCCCNC(=O)[C@H](CCC(=O)OC(C)(C)C)NC(=O)OCc4ccccc4)C(=O)OC(C)(C)C)[C@@H](O[Si](C)(C)C(C)(C)C)[C@H]3O[Si](C)(C)C(C)(C)C)c2=O)cc1 (stereo partly drawn) [Example 20, tert-Butyl (5S,12S)-12-[(R)-[(3R,4R,5R)-3,4-bis{[tert-butyl(dimethyl)silyl]oxy}-5-(3-(4-methoxybenzyl)-2,4-dioxo-3,4-dihydro-1(2H)-pyrimidinyl)tetrahydro-2-furanyl](hydroxy)methyl]-5-[3-(tert-butoxy)-3-oxopropyl]-3,6-dioxo-1-phenyl-2-oxa-4,7,11-triazatridecan-13-oate]",> 128,> 128,> 128,> 128,128,> 128,> 128,> 128,128,> 128,> 128,> 128,> 128,> 128,> 128,> 128,> 128,> 128,> 128,128,–
"COc1ccc(Cn2c(=O)ccn([C@@H]3OC([C@H](O)[C@H](NCCCNC(=O)[C@@H](NC(=O)OCc4ccccc4)[C@H](C)O)C(=O)OC(C)(C)C)[C@@H](O[Si](C)(C)C(C)(C)C)[C@H]3O[Si](C)(C)C(C)(C)C)c2=O)cc1 (stereo partly drawn) [Example 10, tert-Butyl (5S,12S)-12-[(R)-[(3R,4R,5R)-3,4-bis{[tert-butyl(dimethyl)silyl]oxy}-5-(3-(4-methoxybenzyl)-2,4-dioxo-3,4-dihydro-1(2H)-pyrimidinyl)tetrahydro-2-furanyl](hydroxy)methyl]-5-[(1S)-1-hydroxyethyl]-3,6-dioxo-1-phenyl-2-oxa-4,7,11-triazatridecan-13-oate]",> 128,> 128,> 128,> 128,128,> 128,> 128,> 128,> 128,> 128,> 128,> 128,128,> 128,> 128,> 128,> 128,> 128,> 128,> 128,–
"CCOC(=O)C(NCCCNC(=O)[C@@H](NC(=O)[C@H](CCCNC(=N)N)NC(=O)N[C@H](C(=O)O)C(C)C)[C@@H](O)C(C)C)[C@@H](O)[C@H]1O[C@@H](n2ccc(=O)[nH]c2=O)[C@H](OC(C)=O)[C@@H]1OC(C)=O (stereo partly drawn) [Example 43, (2S,6S,9S)-6-(3-{[Amino(imino)methyl]amino}propyl)-16-[(R)-[(2R,3R,4R,5R)-3,4-bis(acetyloxy)-5-(2,4-dioxo-3,4-dihydro-1(2H)-pyrimidinyl)tetrahydro-2-furanyl](hydroxy)methyl]-9-[(1S)-1-hydroxy-2-methylpropyl]-2-isopropyl-4,7,10,17-tetraoxo-18-oxa-3,5,8,11,15-pentaazaicosan-1-oic acid]",–,–,–,–,–,–,–,–,–,–,–,–,–,–,–,–,–,–,–,–,"MIC (E. coli GC 4559; E. coli GC 4559, read-out: MIC): > 128 µg/mL; MIC (E. coli GC 4560; E. coli GC 4560, read-out: MIC): > 128 µg/mL; MIC (E. coli GC 3226; E. coli GC 3226, read-out: MIC): > 128 µg/mL; MIC (S. marcescens GC 4077; S. marcescens GC 4077, read-out: MIC): > 128 µg/mL; MIC (C. albicans GC 3066; C. albicans GC 3066, read-out: MIC): 128 µg/mL; MIC (M. morganii GC 4531; M. morganii GC 4531, read-out: MIC): > 128 µg/mL; MIC (K. pneumoniae GC 4534; K. pneumoniae GC 4534, read-out: MIC): > 128 µg/mL; MIC (E. cloacae GC 3783; E. cloacae GC 3783, read-out: MIC): > 128 µg/mL; MIC (P. aeruginosa GC 4532; P. aeruginosa GC 4532, read-out: MIC): 128 µg/mL; MIC (CNS GC 4537; CNS GC 4537, read-out: MIC): > 128 µg/mL; MIC (CNS GC 4538; CNS GC 4538, read-out: MIC): > 128 µg/mL; MIC (CNS GC 4547; CNS GC 4547, read-out: MIC): > 128 µg/mL; MIC (E. faecalis GC 2242; E. faecalis GC 2242, read-out: MIC): > 128 µg/mL; MIC (E. faecalis GC 4555; E. faecalis GC 4555, read-out: MIC): > 128 µg/mL; MIC (E. faecalis GC 842; E. faecalis GC 842, read-out: MIC): > 128 µg/mL; MIC (S. aureus GC 1131; S. aureus GC 1131, read-out: MIC): > 128 µg/mL; MIC (S. aureus GC 2216; S. aureus GC 2216, read-out: MIC): > 128 µg/mL; MIC (S. aureus GC 4536; S. aureus GC 4536, read-out: MIC): > 128 µg/mL; MIC (E. coli GC 2203; E. coli GC 2203, read-out: MIC): > 128 µg/mL; MIC (P. aeruginosa GC 2214; P. aeruginosa GC 2214, read-out: MIC): 128 µg/mL"
